Source: patent publication US9963431B2, “Use of quinoline derivatives for improving plant yield” (BAYER CROPSCIENCE AG, priority 2013, dated 2018)

Key:
[1] = system: Triticum aestivum variety “AC Harvest”; assay: Growth chamber trial, grain yield after post-emergence spray application; format: in vivo; conditions: for Relative, %: grain yield relative to UTC = 100; for Relative, % / Difference (%) vs. UTC: 10 gai/ha of each active ingredient (mixtures 10 + 10); for Difference (%) vs. UTC: grain yield; for Grain Yield, g/plant: growth chamber, spray at BBCH 56-61, 10 gai/ha of each active ingredient (mixtures 10 + 10)
Corn = assay: Field trial, corn grain yield after post emergence application; format: in vivo; conditions: for Relative, %: yield relative to UTC = 100
Excerpt: (§1) The trials have been carried out under natural field conditions (plot trials, 10 sqm, 4 replications) with spray applications using 100-300 l/water per hectare.
(§2) The applications have been done as post emergence treatments straight (alone, 1 application). The growth stage of the crops species at the time of application are reported in the single tables as well as the dose rates of the active ingredients applied.
(§3) The trials have been harvested after crops reached the full maturity. After the harvest, the total weights of grains (kernels/seeds) per plot were taken. Afterwards the seed samples were dried to 14% moisture. The freshweight were calculated to a uniform dry weight of 86% for all harvested plots. The results are reported as means over 4 replications per treatment based on 14% moisture resp. 86% dry weight. The time interval (in days) between applications and harvest time are also described in the single tables.

Spring wheat = assay: Field trial, spring wheat grain yield after post emergence application; format: in vivo; conditions: 100 gai/ha; for Relative, %: yield relative to UTC = 100
Excerpt: as §1, §2, §3

[2] = system: Oil seed rape (spring; Canola); assay: Field trial, oil seed rape grain yield after post emergence application; format: in vivo; conditions: 100 gai/ha
Excerpt: as §1, §2, §3

[3] = system: Triiticum aestivum seeds (TRZAS); assay: Seed treatment trial, grain yield of plants from treated seeds; format: in vivo, Triticum aestivum
[4] = 20 gai/ha, mid-post, harvest 76 days after application
[5] = 100 gai/ha, GS 33, harvest 84 days after application
[6] = GS 39, harvest 80 days after application
[7] = GS 55, harvest 72 days after application
[8] = grain yield relative to UTC = 100, 1 gai/kg seed
[9] = 250 gai/ha, mid-post, harvest 76 days after application

Row | Structure (SMILES) | Relative, % [1] [%] | Difference (%) vs. UTC [1] | Grain Yield, g/plant [1] [g/plant] | Difference (%) vs. UTC ([3]; 1 gai/kg seed) | Grain Yield, g/plant ([3]; 1 gai/kg seed) [g/plant] | Relative, % [3, 8] [%] | other results
1 | CO/C=C(/C(=O)OC)c1ccccc1Oc1cc(Oc2ccccc2C#N)ncn1 [Azoxystrobin, azoxystrobin] | 115.1 | +15.1% | 1.22 | – | – | – | –
2 | CCCCCC(C)OC(=O)COc1ccc(Cl)c2cccnc12 (stereo not drawn) [CQM, 1-methylhexyl (5-chloro-8-quinolinoxy)acetate] | 103.7 | +3.7% | 1.10 | +9.4% | 1.97 | 109.4 | Difference (%) vs. UTC (Corn; [4]): +2.4%; Yield, dt/ha (Corn; [4]): 94 dt/ha; Difference (%) vs. UTC (Corn; [5]): +9.0%; Yield, dt/ha (Corn; 100 gai/ha, post emergence, stem elongation stage (GS 33), harvest 84 days after application): 52.7 dt/ha; Relative, % (Corn; [4]): 102.4%; Relative, % (Corn; [5]): 108.0%; Difference (%) vs. UTC (Spring wheat; [6]): +9.0%; Difference (%) vs. UTC (Spring wheat; [7]): +7.0%; Yield, dt/ha (Spring wheat; late post emergence, ear heading (GS 55), harvest 72 days after application): 40.2 dt/ha; Yield, dt/ha (Spring wheat; post emergence, flag leaf stage (GS 39), harvest 80 days after application): 41.7 dt/ha; Relative, % (Spring wheat; [6]): 109.0%; Relative, % (Spring wheat; [7]): 107.0%; Difference (%) vs. UTC ([2]; GS 60, harvest 49 days after application): +4.0%; Yield, dt/ha ([2]; late post emergence, begin of flowering (GS 60), harvest 49 days after application): 18.4 dt/ha; Relative, % ([2]; yield relative to UTC = 100, GS 60, harvest 49 days after application): 104.0%; Difference (%) vs. UTC ([3]; 0.5 gai/kg seed): +14.4%; Grain Yield, g/plant ([3]; 0.5 gai/kg seed): 2.06 g/plant; Relative, % ([3]; grain yield relative to UTC = 100, 0.5 gai/kg seed): 114.4%
3 | CN/C(=N\[N+](=O)[O-])NCc1cnc(Cl)s1 [Clothianidin, clothianidin] | 112.3 | +12.3% | 1.19 | – | – | – | –
4 | CC1COC(Cn2cncn2)(c2ccc(Oc3ccc(Cl)cc3)cc2Cl)O1 (stereo not drawn) [Difenoconazole, difenoconazole] | 96.2 | −3.8% | 1.02 | −10% | 1.62 | 90 | –
5 | N#Cc1nn(-c2c(Cl)cc(C(F)(F)F)cc2Cl)c(N)c1[S+]([O-])C(F)(F)F (stereo not drawn) [Fipronil, fipronil] | 112.3 | +12.3% | 1.19 | – | – | – | –
6 | N#Cc1c[nH]cc1-c1cccc2c1OC(F)(F)O2 [Fludioxonil, fludioxonil] | – | – | – | +14.4% | 2.06 | 114.4 | –
7 | OC(Cc1ccccc1Cl)(Cn1nc[nH]c1=S)C1(Cl)CC1 (stereo not drawn) [Prothioconazole, prothioconazole] | 96.2 | −3.8% | 1.02 | – | – | – | –
8 | COC(=O)N(OC)c1ccccc1COc1ccn(-c2ccc(Cl)cc2)n1 [Pyraclostrobin, pyraclostrobin] | 117.0 | +17.0% | 1.24 | – | – | – | Difference (%) vs. UTC (Corn; [9]): −15.2%; Yield, dt/ha (Corn; [9]): 78 dt/ha; Relative, % (Corn; [9]): 84.8%
9 | CON=C(C(=O)OC)c1ccccc1CON=C(C)c1cccc(C(F)(F)F)c1 [Trifloxystrobin, trifloxystrobin] | 105.7 | +5.7% | 1.12 | – | – | – | –
10 | O=[N+]([O-])NC1=NCCN1Cc1ccc(Cl)nc1 [lmidacloprid, imidacloprid] | 107.5 | +7.5% | 1.14 | – | – | – | –
11 | COCC(=O)N(c1c(C)cccc1C)C(C)C(=O)OC (stereo not drawn) [metalaxyl] | 107.5 | +7.5% | 1.14 | −15.6% | 1.52 | 84.4 | –
